For 20 compounds, IC50 results are on record in patent publication US20240124417A1, “COMPOUNDS USEFUL AS IMMUNOMODULATORS” (Bristol-Myers Squibb Company, priority 2019, published 2024).

This assay deals with T1, PD-1/PD-L1 (Homo sapiens, UniProt Q9NZQ7).
T1 construct: TVMV protease site linker (C); made in house; host or cells: HEK293T cells
T1 sequence (Q9NZQ7 18-239): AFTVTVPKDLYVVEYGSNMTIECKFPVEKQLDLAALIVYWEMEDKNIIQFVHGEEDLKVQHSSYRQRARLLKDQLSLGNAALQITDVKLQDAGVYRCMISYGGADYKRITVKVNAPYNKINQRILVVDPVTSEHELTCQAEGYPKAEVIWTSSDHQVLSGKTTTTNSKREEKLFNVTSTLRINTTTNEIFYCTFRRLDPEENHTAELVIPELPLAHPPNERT
In words: PD-1/PD-L1 Homogenous Time-Resolved Fluorescence (HTRF) binding assay. The note with it: PD-L1-His 10 nM, PD-1-Ig 20 nM. The method, boiled down:
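Time-resolved FRET read-out using Eu-cryptate anti-Ig (1 nM final) and APC anti-His (20 nM final). Tagged extracellular domains were used in BSA/Tween-20-supplemented dPBS, with compound pre-incubated 15 min with PD-L1-His (10 nM) before PD-1-Ig (20 nM) was added for 15 min. Other human pairs: PD-L2-His 5 nM with PD-1-Ig 20 nM; PD-L1-Ig 10 nM with CD80-His 100 nM.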
In general terms: In TR-FRET formats the signal depends on donor and acceptor labels being close together.
What is called IC50 is the concentration at which inhibition is half-maximal. Higher therefore signals a need for much substance. `Cc1c(COc2cc(OCc3cncc(C#N)c3)c(CN(C)Cc3c[nH]cn3)cc2Cl)cccc1-c1cccc(OCCCN2CCC(O)(CO)CC2)c1Cl` [Example 2014, 5-((2-((((1H-imidazol-4-yl)methyl)(methyl)amino)methyl)-4-chloro-5-((2′-chloro-3′-(3-(4-hydroxy-4-(hydroxymethyl)piperidin-1-yl)propoxy)-2-methyl-[1,1′-biphenyl]-3-yl)methoxy)phenoxy)methyl)nicotinonitrile] registered a half-inhibitory concentration (IC50) of 0.5 nM. This counts as sub-nanomolar.

As to `Cc1c(COc2cc(OCc3cncc(C#N)c3)c(CN(C)Cc3ncc[nH]3)cc2Cl)cccc1-c1cccc(OCCCN2CCC(O)(CO)CC2)c1Cl` [Example 2015, 5-((2-((((1H-imidazol-2-yl)methyl)(methyl)amino)methyl)-4-chloro-5-((2′-chloro-3′-(3-(4-hydroxy-4-(hydroxymethyl)piperidin-1-yl)propoxy)-2-methyl-[1,1′-biphenyl]-3-yl)methoxy)phenoxy)methyl)nicotinonitrile], the half-maximal inhibitory concentration (IC50) worked out at 3.1 nM.

For the compound `Cc1c(COc2cc(OCc3cncc(C#N)c3)c(CN(C)Cc3cc[nH]n3)cc2Cl)cccc1-c1cccc(OCCCN2CCC(O)(CO)CC2)c1Cl` [Example 2016, 5-((2-((((1H-pyrazol-3-yl)methyl)(methyl)amino)methyl)-4-chloro-5-((2′-chloro-3′-(3-(4-hydroxy-4-(hydroxymethyl)piperidin-1-yl)propoxy)-2-methyl-[1,1′-biphenyl]-3-yl)methoxy)phenoxy)methyl)nicotinonitrile], the concentration for half-maximal inhibition (IC50) came out at 0.2 nM.

For the compound `Cc1c(COc2cc(OCc3cncc(C#N)c3)c(CNCc3ccccn3)cc2Cl)cccc1-c1cccc(OCCCN2CC[C@@H](O)C2)c1C` [Example 2017, (R)-5-((4-chloro-5-((3′-(3-(3-hydroxypyrrolidin-1-yl)propoxy)-2,2′-dimethyl-[1,1′-biphenyl]-3-yl)methoxy)-2-(((pyridin-2-ylmethyl)amino)methyl)phenoxy)methyl)nicotinonitrile], the IC50 came out at 2.1 nM.

Turning to `Cc1c(COc2cc(OCc3cncc(C#N)c3)c(CNCc3cccnc3)cc2Cl)cccc1-c1cccc(OCCCN2CC[C@@H](O)C2)c1C` [Example 2018, (R)-5-((4-chloro-5-((3′-(3-(3-hydroxypyrrolidin-1-yl)propoxy)-2,2′-dimethyl-[1,1′-biphenyl]-3-yl)methoxy)-2-(((pyridin-3-ylmethyl)amino)methyl)phenoxy)methyl)nicotinonitrile], the IC50 worked out at 0.8 nM.

In turn, `Cc1c(COc2cc(OCc3cncc(C#N)c3)c(CNCc3ccncc3)cc2Cl)cccc1-c1cccc(OCCCN2CC[C@@H](O)C2)c1C` [Example 2019, (R)-5-((4-chloro-5-((3′-(3-(3-hydroxypyrrolidin-1-yl)propoxy)-2,2′-dimethyl-[1,1′-biphenyl]-3-yl)methoxy)-2-(((pyridin-4-ylmethyl)amino)methyl)phenoxy)methyl)nicotinonitrile] gave a 50% inhibitory concentration (IC50) of 4.1 nM. Compared with the last compound, the IC50 is about 5.1-fold higher.

Compound `Cc1c(COc2cc(OCc3cncc(C#N)c3)c(CNCc3cnccn3)cc2Cl)cccc1-c1cccc(OCCCN2CC[C@@H](O)C2)c1C` [Example 2020, (R)-5-((4-chloro-5-((3′-(3-(3-hydroxypyrrolidin-1-yl)propoxy)-2,2′-dimethyl-[1,1′-biphenyl]-3-yl)methoxy)-2-(((pyrazin-2-ylmethyl)amino)methyl)phenoxy)methyl)nicotinonitrile] registered a concentration for half-maximal inhibition (IC50) of 2.7 nM.

`Cc1c(COc2cc(OCc3cncc(C#N)c3)c(CNCc3cccnn3)cc2Cl)cccc1-c1cccc(OCCCN2CC[C@@H](O)C2)c1C` [Example 2021, (R)-5-((4-chloro-5-((3′-(3-(3-hydroxypyrrolidin-1-yl)propoxy)-2,2′-dimethyl-[1,1′-biphenyl]-3-yl)methoxy)-2-(((pyridazin-3-ylmethyl)amino)methyl)phenoxy)methyl)nicotinonitrile] gave an IC50 of 6 nM.

`Cc1c(COc2cc(OCc3cncc(C#N)c3)c(CNCc3cncnc3)cc2Cl)cccc1-c1cccc(OCCCN2CC[C@@H](O)C2)c1C` [Example 2022, (R)-5-((4-chloro-5-((3′-(3-(3-hydroxypyrrolidin-1-yl)propoxy)-2,2′-dimethyl-[1,1′-biphenyl]-3-yl)methoxy)-2-(((pyrimidin-5-ylmethyl)amino)methyl)phenoxy)methyl)nicotinonitrile] had a half-maximal inhibitory concentration (IC50) of 0.8 nM.

`Cc1c(COc2cc(OCc3cncc(C#N)c3)c(CN(C)Cc3nc4ccccc4[nH]3)cc2Cl)cccc1-c1cccc(OCCCN2CC[C@@H](O)C2)c1C` [Example 2023, (R)-5-((2-((((1H-benzo[d]imidazol-2-yl)methyl)(methyl)amino)methyl)-4-chloro-5-((3′-(3-(3-hydroxypyrrolidin-1-yl)propoxy)-2,2′-dimethyl-[1,1′-biphenyl]-3-yl)methoxy)phenoxy)methyl)nicotinonitrile]: the IC50 was 8.8 nM. This IC50 lies about 11-fold higher than the previous one.

As for `Cc1c[nH]c(CN(C)Cc2cc(Cl)c(OCc3cccc(-c4cccc(OCCCN5CC[C@@H](O)C5)c4C)c3C)cc2OCc2cncc(C#N)c2)n1` [Example 2024, (R)-5-((4-chloro-5-((3′-(3-(3-hydroxypyrrolidin-1-yl)propoxy)-2,2′-dimethyl-[1,1′-biphenyl]-3-yl)methoxy)-2-((methyl((4-methyl-1H-imidazol-2-yl)methyl)amino)methyl)phenoxy)methyl)nicotinonitrile], the half-maximal inhibitory concentration (IC50) was 0.6 nM.

In turn, `Cc1cc(CN(C)Cc2cc(Cl)c(OCc3cccc(-c4cccc(OCCCN5CC[C@@H](O)C5)c4C)c3C)cc2OCc2cncc(C#N)c2)[nH]n1` [Example 2025, (R)-5-((4-chloro-5-((3′-(3-(3-hydroxypyrrolidin-1-yl)propoxy)-2,2′-dimethyl-[1,1′-biphenyl]-3-yl)methoxy)-2-((methyl((3-methyl-1H-pyrazol-5-yl)methyl)amino)methyl)phenoxy)methyl)nicotinonitrile] gave an IC50 of 1.6 nM.

`Cc1c(COc2cc(OCc3cncc(C#N)c3)c(CN(C)Cc3ccn(C)n3)cc2Cl)cccc1-c1cccc(OCCCN2CC[C@@H](O)C2)c1C` [Example 2026, (R)-5-((4-chloro-5-((3′-(3-(3-hydroxypyrrolidin-1-yl)propoxy)-2,2′-dimethyl-[1,1′-biphenyl]-3-yl)methoxy)-2-((methyl((1-methyl-1H-pyrazol-3-yl)methyl)amino)methyl)phenoxy)methyl)nicotinonitrile] displayed an IC50 of 1.9 nM.

`Cc1c(COc2cc(OCc3cncc(C#N)c3)c(CN(C)Cc3nn(C)cc3Cl)cc2Cl)cccc1-c1cccc(OCCCN2CC[C@@H](O)C2)c1C` [Example 2027, (R)-5-((4-chloro-2-((((4-chloro-1-methyl-1H-pyrazol-3-yl)methyl)(methyl)amino)methyl)-5-((3′-(3-(3-hydroxypyrrolidin-1-yl)propoxy)-2,2′-dimethyl-[1,1′-biphenyl]-3-yl)methoxy)phenoxy)methyl)nicotinonitrile] had an IC50 of 2.3 nM.

On to `Cc1c(COc2cc(OCc3cncc(C#N)c3)c(CN(C)Cc3ccccn3)cc2Cl)cccc1-c1cccc(OCCCN2CC[C@@H](O)C2)c1C` [Example 2028, (R)-5-((4-chloro-5-((3′-(3-(3-hydroxypyrrolidin-1-yl)propoxy)-2,2′-dimethyl-[1,1′-biphenyl]-3-yl)methoxy)-2-((methyl(pyridin-2-ylmethyl)amino)methyl)phenoxy)methyl)nicotinonitrile], for which the 50% inhibitory concentration (IC50) turned out to be 0.2 nM.

`Cc1c(COc2cc(OCc3cncc(C#N)c3)c(CN(C)Cc3ccncc3)cc2Cl)cccc1-c1cccc(OCCCN2CC[C@@H](O)C2)c1C` [Example 2029, (R)-5-((4-chloro-5-((3′-(3-(3-hydroxypyrrolidin-1-yl)propoxy)-2,2′-dimethyl-[1,1′-biphenyl]-3-yl)methoxy)-2-((methyl(pyridin-4-ylmethyl)amino)methyl)phenoxy)methyl)nicotinonitrile] displayed an IC50 of 4.1 nM. Compared with the last compound, the IC50 is about 20-fold higher.

In turn, `Cc1c(COc2cc(OCc3cncc(C#N)c3)c(CN(C)Cc3cnccn3)cc2Cl)cccc1-c1cccc(OCCCN2CC[C@@H](O)C2)c1C` [Example 2030, (R)-5-((4-chloro-5-((3′-(3-(3-hydroxypyrrolidin-1-yl)propoxy)-2,2′-dimethyl-[1,1′-biphenyl]-3-yl)methoxy)-2-((methyl(pyrazin-2-ylmethyl)amino)methyl)phenoxy)methyl)nicotinonitrile] returned a half-inhibitory concentration (IC50) of 1.1 nM.

For the compound `Cc1c(COc2cc(OCc3cncc(C#N)c3)c(CN(C)Cc3cccnn3)cc2Cl)cccc1-c1cccc(OCCCN2CC[C@@H](O)C2)c1C` [Example 2031, (R)-5-((4-chloro-5-((3′-(3-(3-hydroxypyrrolidin-1-yl)propoxy)-2,2′-dimethyl-[1,1′-biphenyl]-3-yl)methoxy)-2-((methyl(pyridazin-3-ylmethyl)amino)methyl)phenoxy)methyl)nicotinonitrile], the IC50 is 0.2 nM.

`Cc1c(COc2cc(OCc3cncc(C#N)c3)c(CN(C)Cc3cncnc3)cc2Cl)cccc1-c1cccc(OCCCN2CC[C@@H](O)C2)c1C` [Example 2032, (R)-5-((4-chloro-5-((3′-(3-(3-hydroxypyrrolidin-1-yl)propoxy)-2,2′-dimethyl-[1,1′-biphenyl]-3-yl)methoxy)-2-((methyl(pyrimidin-5-ylmethyl)amino)methyl)phenoxy)methyl)nicotinonitrile] yielded an IC50 of 2.5 nM.

The compound `CCN(CCO)CCCOc1cccc(-c2cccc(COc3cc(OCc4cncc(C#N)c4)c(CNCc4c[nH]cn4)cc3Cl)c2C)c1C` [Example 2033, 5-((2-((((1H-imidazol-4-yl)methyl)amino)methyl)-4-chloro-5-((3′-(3-(ethyl(2-hydroxyethyl)amino)propoxy)-2,2′-dimethyl-[1,1′-biphenyl]-3-yl)methoxy)phenoxy)methyl)nicotinonitrile] displayed an IC50 of 2.9 nM.
